Assay results reported in patent US8980865B2, “Substituted nucleotide analogs” (priority 2011, dated 2015).
Where two headings read alike, the source gives them in different places.

Columns and labels:
[1] = test system: Huh-7 cells containing the self-replicating, subgenomic HCV replicon; assay: HCV replicon assay (luciferase reporter); format: cell-based; settings: Hepatitis C virus, Huh-7, 72 h
Procedure: Huh-7 cells containing the self-replicating, subgenomic HCV replicon with a stable luciferase (LUC) reporter were cultured in Dulbecco's modified Eagle's medium (DMEM) containing 2 mM L-glutamine and supplemented with 10% heat-inactivated fetal bovine serum (FBS), 1% penicillin-streptomyocin, 1% nonessential amino acids, and 0.5 mg/mL G418.
Determination of 50% inhibitory concentration (EC50) of compounds in HCV replicon cells were performed by the following procedure. On the first day, 5,000 HCV replicon cells were plated per well in a 96-well plate. On the following day, test compounds were solubilized in 100% DMSO to 100× the desired final testing concentration. Each compound was then serially diluted (1:3) up to 9 different concentrations. Compounds in 100% DMSO are reduced to 10% DMSO by diluting 1:10 in cell culture media. The compounds were diluted to 10% DMSO with cell culture media, which were used to dose the HCV replicon cells in 96-well format. The final DMSO concentration was 1%. The HCV replicon cells were incubated at 37° C. for 72 hours. At 72 hours, cells were processed when the cells are still subconfluent. Compounds that reduce the LUC signal are determined by Bright-Glo Luciferase Assay (Promega, Madison, Wis.). % Inhibition was determined for each compound concentration in relation to the control cells (untreated HCV replicon) to calculate the EC50.
Compounds of Formula (I) are active in the replicon assay. The antiviral activity of exemplary compounds is shown in Table 3, where ‘A’ indicates an EC50<1 μM, ‘B’ indicates an EC50≧1 μM and <10 μM, and ‘C’ indicates an EC50≧10 μM and <100 μM.

[2] = target: NS5B570-Con1 (Delta-21) (Hepatitis C virus genotype 1b, UniProt Q9WMX2); assay: NS5B inhibition assay; format: biochemical, HCV; settings: IC50, incorporation of tritiated NMP into acid-insoluble RNA, 2 hours at 37° C.
Procedure: The enzyme activity of NS5B570-Con1 (Delta-21) was measured as an incorporation of tritiated NMP into acid-insoluble RNA products. The complementary IRES (cIRES) RNA sequence was used as a template, corresponding to 377 nucleotides from the 3′-end of HCV (−) strand RNA of the Con-1 strain, with a base content of 21% Ade, 23% Ura, 28% Cyt, and 28% Gua. The cIRES RNA was transcribed in vitro using a T7 transcription kit (Ambion, Inc.) and purified using the Qiagen RNeasy maxi kit. HCV polymerase reactions contained 50 nM NS5B570-Con1, 50 nM cIRES RNA, about 0.5 μCi tritiated NTP, 1 μm of competing cold NTP, 20 mM NaCl, 40 mm Tris-HCl (pH 8.0), 4 mm dithiothreitol, and 4 mm MgCl2. Standard reactions were incubated for 2 hours at 37° C., in the presence of increasing concentration of inhibitor. At the end of the reaction, RNA was precipitated with 10% TCA, and acid-insoluble RNA products were filtered on a size exclusion 96-well plate. After washing of the plate, scintillation liquid was added and radio labeled RNA products were detected according to standard procedures with a Trilux Topcount scintillation counter. The compound concentration at which the enzyme-catalyzed rate was reduced by 50% (IC50) was calculated by fitting the data to a non-linear regression (sigmoidal). The IC50 values were derived from the mean of several independent experiments. […]

[3] = test system: HCV genotype 1b HCV replicon harbored in Huh7 cells; assay: Combination testing in HCV replicon (CalcuSyn CI, MacSynergy II synergy volume); format: cell-based
Procedure: Two or more test compounds were tested in combination with each other using an HCV genotype 1b HCV replicon harbored in Huh7 cells with a stable luciferase (LUC) reporter. Cells were cultured under standard conditions in Dulbecco's modified Eagle's medium (DMEM; Mediatech Inc, Herndon, Va.) containing 10% heat-inactivated fetal bovine serum (FBS; Mediatech Inc, Herndon, Va.) 2 mM L-glutamine, and nonessential amino acids (JRH Biosciences). HCV replicon cells were plated in a 96-well plate at a density of 10^4 cells per well in DMEM with 10% FBS. On the following day, the culture medium was replaced with DMEM containing either no compound as a control, the test compounds serially diluted in the presence of 2% FBS and 0.5% DMSO, or a combination of compound 1a with one or more test compounds serially diluted in the presence of 2% FBS and 0.5% DMSO. The cells were incubated with no compound as a control, with the test compounds, or the combination of compounds for 72 hours. The direct effects of the combination of the test compounds were examined using a luciferase (LUC) based reporter as determined by the Bright-Glo Luciferase Assay (Promega, Madison, Wis.). Dose-response curves were determined for individual compounds and fixed ratio combinations of two or more test compounds.
The effects of test compound combinations were evaluated by two separate methods. In the Loewe additivity model, the experimental replicon data was analyzed by using CalcuSyn (Biosoft, Ferguson, Mo.), a computer program based on the method of Chou and Talalay. The program uses the experimental data to calculate a combination index (CI) value for each experimental combination tested. […]
The second method utilized for evaluating combination effects used a program called MacSynergy II. […] The volumes of synergy (positive volumes) or antagonism (negative volumes) represent the relative quantity of synergism or antagonism per change in the concentrations of the two drugs. […]

SMILES	EC50 [1] [nM]	further results
C#C[C@@]1(O)[C@H](O)[C@@H](COP(=S)(N[C@@H](C)C(=O)OC(C)C)Oc2ccccc2)O[C@H]1n1ccc(=O)[nH]c1=O (some centres unmarked) [Compound 1a]	< 1000	–
C#C[C@@]1(O)[C@H](O)[C@@H](CO[P@@](=S)(N[C@@H](C)C(=O)OC(C)C)Oc2ccccc2)O[C@H]1n1ccc(=O)[nH]c1=O [Compound 1aa]	< 1000	–
C#C[C@@]1(O)[C@H](O)[C@@H](CO[P@](=S)(N[C@@H](C)C(=O)OC(C)C)Oc2ccccc2)O[C@H]1n1ccc(=O)[nH]c1=O [Compound 1ab]	< 1000	–
C=C[C@@]1(O)[C@H](O)[C@@H](COP(=S)(N[C@@H](C)C(=O)OC(C)C)Oc2ccccc2)O[C@H]1n1ccc(=O)[nH]c1=O (some centres unmarked) [Compound 2a]	1000 to 10000	–
C#C[C@@]1(O)[C@H](O)[C@@H](COP(=S)(N[C@@H](C)C(=O)OC(C)C)Oc2ccccc2)O[C@H]1n1cnc2c(N)ncnc21 (some centres unmarked) [Compound 4a]	< 1000	–
C#C[C@@]1(O)[C@H](O)[C@@H](COP(=S)(N[C@@H](C)C(=O)OC(C)C)Oc2ccccc2)O[C@H]1n1cnc2c(=O)[nH]c(N)nc21 (some centres unmarked) [Compound 6a]	1000 to 10000	–
C#C[C@@]1(O)[C@H](O)[C@@H](COP(=S)(N[C@@H](CCSC)C(=O)OC(C)C)Oc2ccccc2)O[C@H]1n1ccc(=O)[nH]c1=O (some centres unmarked) [Compound 7a]	< 1000	–
C#C[C@@]1(O)[C@H](O)[C@@H](COP(=S)(N[C@H](C(=O)OC(C)C)C(C)C)Oc2ccccc2)O[C@H]1n1ccc(=O)[nH]c1=O (some centres unmarked) [Compound 8a]	10000 to 100000	–
C#C[C@@]1(O)[C@H](O)[C@@H](COP(=S)(N[C@@H](CC(C)C)C(=O)OC(C)C)Oc2ccccc2)O[C@H]1n1ccc(=O)[nH]c1=O (some centres unmarked) [Compound 9a]	1000 to 10000	–
C#C[C@@]1(O)[C@H](O)[C@@H](COP(=S)(N[C@@H](C)C(=O)OC(C)C)Oc2ccc(F)cc2)O[C@H]1n1ccc(=O)[nH]c1=O (some centres unmarked) [Compound 10a]	< 1000	–
C#C[C@@]1(O)[C@H](O)[C@@H](COP(=S)(N[C@@H](C)C(=O)OC(C)C)Oc2ccc(Cl)cc2)O[C@H]1n1ccc(=O)[nH]c1=O (some centres unmarked) [Compound 11a]	< 1000	–
C#C[C@@]1(O)[C@H](O)[C@@H](COP(=S)(N[C@@H](C)C(=O)OC(C)C)Oc2ccc(F)c(Cl)c2)O[C@H]1n1ccc(=O)[nH]c1=O (some centres unmarked) [Compound 12a]	< 1000	–
C#C[C@@]1(O)[C@H](O)[C@@H](COP(=S)(N[C@@H](C)C(=O)OC(C)C)Oc2cccc3ccccc23)O[C@H]1n1ccc(=O)[nH]c1=O (some centres unmarked) [Compound 13a]	< 1000	–
CC#C[C@@]1(O)[C@H](O)[C@@H](COP(=S)(N[C@@H](C)C(=O)OC(C)C)Oc2ccccc2)O[C@H]1n1ccc(=O)[nH]c1=O (some centres unmarked) [Compound 14a]	1000 to 10000	–
CC(C)OC(=O)[C@H](C)NP(=S)(OC[C@H]1O[C@@H](n2ccc(=O)[nH]c2=O)[C@@](O)(C#CI)[C@@H]1O)Oc1ccccc1 (some centres unmarked) [Compound 15a]	< 1000	–
C#C[C@@]1(F)[C@H](O)[C@@H](COP(=S)(N[C@@H](C)C(=O)OC(C)C)Oc2ccccc2)O[C@H]1n1ccc(=O)[nH]c1=O (some centres unmarked) [Compound 16a]	1000 to 10000	–
C#C[C@@]1(O)[C@H](O)[C@@H](COP(=S)(N[C@@H](C)C(=O)OC2CCCCC2)Oc2ccccc2)O[C@H]1n1cnc2c(=O)[nH]c(N)nc21 (some centres unmarked) [Compound 17a]	1000 to 10000	–
CCC#C[C@@]1(O)[C@H](O)[C@@H](COP(=S)(N[C@@H](C)C(=O)OC(C)C)Oc2ccccc2)O[C@H]1n1ccc(=O)[nH]c1=O (some centres unmarked) [Compound 18a]	10000 to 100000	–
C#C[C@@]1(O)[C@H](O)[C@@H](COP(=S)(N[C@@H](CCC)C(=O)OC(C)C)Oc2ccccc2)O[C@H]1n1ccc(=O)[nH]c1=O (some centres unmarked) [Compound 19a]	< 1000	–
CC(C)C#C[C@@]1(O)[C@H](O)[C@@H](COP(=S)(N[C@@H](C)C(=O)OC(C)C)Oc2ccccc2)O[C@H]1n1ccc(=O)[nH]c1=O (some centres unmarked) [Compound 20a]	10000 to 100000	–
C#C[C@@]1(O)[C@H](O)[C@@H](COP(=S)(N[C@@H](CC)C(=O)OC(C)C)Oc2ccccc2)O[C@H]1n1ccc(=O)[nH]c1=O (some centres unmarked) [Compound 21a]	< 1000	–
C#CC1(O)C(O)C(COP(O)(=S)OP(=O)(O)OP(=O)(O)O)OC1n1ccc(=O)[nH]c1=O (centres unmarked) [Compound 23a]	–	IC50 [2]: < 1000 nM
C#CC1(O)C(O)C(COP(O)(=S)OP(=O)(O)OP(=O)(O)O)OC1n1ccc(=O)[nH]c1=O (centres unmarked) [Compound 24a]	–	IC50 [2]: < 10000 nM
CCC[C@H](NC(=O)[C@@H]1[C@H]2CCC[C@H]2CN1C(=O)[C@@H](NC(=O)[C@@H](NC(=O)c1cnccn1)C1CCCCC1)C(C)(C)C)C(=O)C(=O)NC1CC1 [Compound 1001, Telaprevir]	–	Synergy Volume [3]: 104 μM^2%
CC1CCC(C(=O)N(c2cc(C#CC(C)(C)C)sc2C(=O)O)C2CCC(O)CC2)CC1 (centres unmarked) [Compound 3003]	–	Synergy Volume [3]: 32 μM^2%
CC(C)OC(=O)C(C)NP(=S)(OC[C@H]1O[C@@H](n2ccc(=O)[nH]c2=O)[C@](C)(O)[C@@H]1O)Oc1ccccc1 (some centres unmarked) [Compound 6002]	–	Synergy Volume ([3]; combination of compound 1a with the listed compound, 72 hours, MacSynergy II, Bliss independence, 25-100 synergistic, >100 strong synergistic): 29 μM^2%
